Measurements published in ChEMBL document CHEMBL1201862, “PubChem BioAssay data set” (2004).
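Step 1: Grow cells in 96-well plates. Step 2: Expose to compound for 48 hours at 5 concentrations. Step 3: Interpolate endpoints linearly; if unreached, use highest concentration. Here, GI50 denotes the concentration required for 50% inhibition of growth.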 Active and inactive are the calls of the source. No stated cut-off is given here; in the data, active = GI50 up to about 1.1 µM and inactive = higher.

Experiments:
Experiment in all cases: DTP human tumour cell line panel, 48 h
ACHN = tested on: ACHN
CCRF-CEM = tested on: CCRF-CEM
HCT-116 = tested on: HCT-116
HL-60 = tested on: HL-60
HOP-62 = tested on: HOP-62
IGROV-1 = tested on: IGROV-1
K562 = tested on: K562
KM12 = tested on: KM12
MOLT-4 = tested on: MOLT-4
NCI-H226 = tested on: NCI-H226
NCI-H23 = tested on: NCI-H23
NCI-H522 = tested on: NCI-H522
OVCAR-4 = tested on: OVCAR-4
OVCAR-8 = tested on: OVCAR-8
SF-539 = tested on: SF-539
SK-MEL-5 = tested on: SK-MEL-5
SNB-19 = tested on: SNB-19
UO-31 = tested on: UO-31
RPMI-8226 = tested on: RPMI-8226

Measured: GI50

CC(=O)CNC(=O)OC(C)(C)C
inactive: ACHN > 100 µM | CCRF-CEM > 100 µM | HCT-116 > 100 µM | HL-60 > 100 µM | HOP-62 > 100 µM | IGROV-1 > 100 µM | K562 > 100 µM | KM12 > 100 µM | MOLT-4 > 100 µM | NCI-H226 > 100 µM | NCI-H23 > 100 µM | NCI-H522 > 100 µM | OVCAR-4 > 100 µM | OVCAR-8 > 100 µM | SF-539 > 100 µM | SK-MEL-5 > 100 µM | SNB-19 > 100 µM | UO-31 > 100 µM

O=C1c2ccccc2C(=O)c2nc(-c3ccccc3)c(-c3ccccc3)nc21
inactive: ACHN > 100 µM | CCRF-CEM > 100 µM | HCT-116 > 100 µM | HOP-62 33 µM | K562 > 100 µM | KM12 > 100 µM | MOLT-4 > 100 µM | NCI-H226 22.5 µM | NCI-H23 17.6 µM | NCI-H522 14.4 µM | OVCAR-4 7.08 µM | OVCAR-8 > 100 µM | RPMI-8226 > 100 µM | SF-539 24.7 µM | SK-MEL-5 1.49 µM | SNB-19 24.9 µM | UO-31 > 100 µM

CN(C)C(=S)Nc1nnc(Nc2ccccc2)s1
inactive: ACHN > 100 µM | CCRF-CEM > 100 µM | HCT-116 > 100 µM | HL-60 > 100 µM | HOP-62 > 100 µM | IGROV-1 > 100 µM | K562 > 100 µM | KM12 > 10 µM | MOLT-4 > 100 µM | NCI-H226 > 100 µM | NCI-H23 > 100 µM | NCI-H522 9.51 µM | OVCAR-4 > 100 µM | OVCAR-8 > 100 µM | SF-539 > 100 µM | SK-MEL-5 38.7 µM | SNB-19 > 100 µM | UO-31 > 100 µM

CC1(C)C(=O)N(c2ccccc2)C(=O)N1c1nc2ccccc2[nH]1
inactive: ACHN > 100 µM | CCRF-CEM 21.4 µM | HCT-116 37.4 µM | HL-60 63.2 µM | HOP-62 > 100 µM | IGROV-1 > 100 µM | K562 53.6 µM | KM12 > 100 µM | MOLT-4 40.9 µM | NCI-H226 > 100 µM | NCI-H23 > 100 µM | NCI-H522 54.7 µM | OVCAR-8 > 100 µM | RPMI-8226 33.7 µM | SK-MEL-5 > 100 µM | SNB-19 > 100 µM | UO-31 > 100 µM
